Measured values reported in paper doi:10.1101/2020.10.02.321802v3 (bioRxiv, 2020).
Converted amounts (≈) assume the structure as drawn. Bridge positions count the residues as written; N and C are the ends. Square brackets hold non-standard residues; d marks the D form. Peptide text beside a SMILES is read from it. * marks the point of attachment. X1 = CC[C@H](C)CCCCC(=O)*; Dab = NCC[C@H](N)C(=O)O

Columns and labels:
[1] = tested on: E. coli MG1655; experiment: MIC and IC50 measurement; type: cell-based, Escherichia coli; details: for IC50 / MIC: OD590 after 16 hours
[2] = tested on: E. coli ATCC 25922; experiment: MIC and IC50 measurement; type: cell-based, Escherichia coli; details: for IC50 / MIC: OD590 after 16 hours
[3] = tested on: E. coli MG1655; experiment: Growth curves with single AMPs and combinations of AMPs; type: cell-based, Escherichia coli; details: single compound at the "full" concentration, 6 hours
[4] = tested on: P. aeruginosa PA14; experiment: MIC and IC50 measurement; type: cell-based, Pseudomonas aeruginosa; details: for IC50 / MIC: OD590 after 16 hours
[5] = tested on: wild-type strain (Keio deletion library); experiment: MIC and IC50 on Keio collection strains; type: cell-based, Escherichia coli
[6] = ref Michod et al., 2009; cited from earlier work
[7] = tested on: S. aureus ATCC 29213; experiment: Selection of resistant mutants by serial passage, MIC per passage; type: cell-based, Staphylococcus aureus
[8] = tested on: ΔlpxL deletion mutant (Keio deletion library); experiment: MIC and IC50 on Keio collection strains; type: cell-based, Escherichia coli
[9] = tested on: ΔrfaY deletion mutant (Keio deletion library); experiment: MIC and IC50 on Keio collection strains; type: cell-based, Escherichia coli
[10] = BM2 Mg^high (BM2 with 2 mM MgSO4)
[11] = BM2 Mg^low (BM2 with 20 μM MgSO4)
[12] = LB Mg^high (LB with 2 mM MgSO4)
[13] = LB containing EDTA at concentrations that do not affect bacterial proliferation

| Molecule | IC50 [1, 10] | MIC [1, 10] | IC50 [1, 11] | MIC [1, 11] | MIC [1, 12] | MIC ([1]; LB) | IC50 ([1]; LB, GraphPad Prism 8) | IC50 [2, 12] | MIC [2, 12] | IC50 ([2]; LB) | MIC ([2]; LB) | growth inhibition [3] | IC50 [4, 10] | MIC [4, 10] | MIC [4, 11] | MIC [4, 12] | IC50 ([4]; LB) | MIC ([4]; LB) | also measured |
| --- | --- | --- | --- | --- | --- | --- | --- | --- | --- | --- | --- | --- | --- | --- | --- | --- | --- | --- | --- |
| CC[C@H](C)CCCCC(=O)N[C@@H](CCN)C(=O)N[C@H](C(=O)N[C@@H](CCN)C(=O)N[C@H]1CCNC(=O)[C@H]([C@@H](C)O)NC(=O)[C@H](CCN)NC(=O)[C@H](CCN)NC(=O)[C@H](CC(C)C)NC(=O)[C@@H](Cc2ccccc2)NC(=O)[C@H](CCN)NC1=O)[C@@H](C)O [Polymyxin B, polymyxin B] (X1-[Dab]T[Dab][Dab][Dab][dF]L[Dab][Dab]T; lactam 4-C (inferred); N-terminus assumed) | 0.8 µg/mL | 2 µg/mL | 1.0 µg/mL | 2 µg/mL | 2 µg/mL | 1 µg/mL | 0.6 µg/mL | 2.7 µg/mL | 4 µg/mL | 1.8 µg/mL | 2 µg/mL | ~ 35% | 0.5 µg/mL | 1 µg/mL | 4 µg/mL | 2 µg/mL | 2.1 µg/mL | 4 µg/mL | impact of low magnesium in BM2 medium on MIC ([1]; BM2 Mg^low vs BM2 Mg^high): no impact; effect of EDTA on MIC [1, 13]: less affected; effect of soluble LPS on efficacy (MIC) ([1]; LB containing purified E. coli LPS, averages of two independent experiments): greatly diminishes the efficacy; effect of EDTA on MIC [2, 13]: less affected; increase of MIC by low magnesium in BM2 medium ([4]; BM2 Mg^low vs BM2 Mg^high): 4 fold |
| CSCC[C@@H](NC(=O)[C@@H](Cc1c[nH]c2ccccc12)NC(=O)[C@H](NC(=O)[C@H](NC(=O)[C@@H](CC(N)=O)NC(=O)[C@@H](CC(C)C)NC(=O)[C@@H](CCCNC(=N)N)NC(=O)[C@H](NC(=O)[C@H](N)CC(=O)O)[C@H](C)O)[C@H](C)O)C(C)C)C(=O)N[C@H](Cc1c[nH]c2ccccc12)C(=O)NCC(=O)NCC(=O)N[C@H](CCCNC(=N)N)C(=O)N[C@H](CCCNC(=N)N)C(=O)N[C@H](CCCNC(=N)N)C(=O)N[C@H](CCC(N)=O)C(=O)N[C@H](CCCNC(=N)N)C(=O)N[C@H](CCCNC(=N)N)C(=O)N[C@H](CCCCN)C(=O)N[C@H](CCCCN)C(=O)N[C@H](CCCNC(=N)N)C(=O)NCC(=O)O [TAT-RasGAP317-326] (H-[dD][dT][dR][dL][dN][dT][dV][dW][dM][dW]GG[dR][dR][dR][dQ][dR][dR][dK][dK][dR]G-OH) | 2000 nM | 4 µM | 300 nM | 0.5 µM | 32 µM | 8 µM | 3000 nM | 52 µM | 128 µM | 5.2 µM | 8 µM | – | 10.1 µM | 32 µM | 4 µM | 64 µM | 7.2 µM | 32 µM | IC50 [1, 12]: 16300 nM; IC50 ([5]; Strain 1): 4.1 µM; MIC ([5]; Strain 1): 7.5 µM (≈ 21.1 µg/mL); IC50 ([5]; Strain 2): 4.8 µM; MIC ([5]; Strain 2): 7.5 µM (≈ 21.1 µg/mL); biodistribution and clearance [6]: poor biodistribution and rapid clearance; IC50 [4, 11]: 1.7 µM; IC50 [4, 12]: 20.8 µM; MIC after selection ([7]; S. aureus passaged in presence of peptide, rapidly increased): 256 µM; MIC of the parental strain ([7]; parental strain of S. aureus): 64 to 128 µM; IC50 ([8]; Strain 1): 2000 nM; MIC ([8]; Strain 1): 2.5 µM (≈ 7.04 µg/mL); IC50 ([8]; Strain 2): 2200 nM; MIC ([8]; Strain 2): 2.5 µM (≈ 7.04 µg/mL); IC50 ([9]; Strain 1): 7.1 µM; MIC ([9]; Strain 1): 10 µM (≈ 28.1 µg/mL); IC50 ([9]; Strain 2): 7.8 µM; MIC ([9]; Strain 2): 10 µM (≈ 28.1 µg/mL) |
| melittin | – | – | – | – | – | – | – | – | – | – | – | ~ 20% | – | – | – | – | – | – | – |
